Measured values as given in ChEMBL document CHEMBL4732202, “Identification and Profiling of a Novel Diazaspiro[3.4]octane Chemical Series Active against Multiple Stages of the Human Malaria Parasite Plasmodium falciparum and Optimization Efforts” (J Med Chem, 2021).

How the values were obtained:
[1] = Half life in human liver microsomes at 0.1 uM in presence or absence of NADPH by LC-MS/MS analysis; assay type: ADME, Microsome
[2] = Half life in rat liver microsomes at 0.1 uM in presence or absence of NADPH by LC-MS/MS analysis; assay type: ADME, Microsome
[3] = Half life in mouse liver microsomes at 0.1 uM in presence or absence of NADPH by LC-MS/MS analysis; assay type: ADME, Microsome
[4] = Half life in Balb/c mouse at 3 mg/kg, iv measured upto 24 hrs by LC-MS/MS analysis; assay type: ADME, organism-based; settings: in vivo
[5] = Blood clearance in Balb/c mouse at 3 mg/kg, iv measured upto 24 hrs by LC-MS/MS analysis; assay type: ADME, organism-based; settings: whole blood
[6] = Volume of distribution in Balb/c mouse at 3 mg/kg, iv measured upto 24 hrs by LC-MS/MS analysis; assay type: ADME, organism-based; settings: in vivo
[7] = AUC (0 to infinity) in Balb/c mouse at 3 mg/kg, iv measured upto 24 hrs by LC-MS/MS analysis; assay type: ADME, organism-based; parameters: route intravenous, dose 3 mg/kg, time <=24; settings: in vivo
[8] = Oral bioavailability in Balb/c mouse at 10 mg/kg measured upto 24 hrs by LC-MS/MS analysis; assay type: ADME, organism-based; settings: in vivo
[9] = Intrinsic clearance in Balb/c mouse at 3 mg/kg, iv measured upto 24 hrs by LC-MS/MS analysis; assay type: ADME, organism-based; settings: in vivo
[10] = Unbound AUC in Balb/c mouse at 20 mg/kg, po measured upto 24 hrs by LC-MS/MS analysis; assay type: ADME, organism-based; settings: in vivo
[11] = Unbound average drug concentration in Balb/c mouse at 20 mg/kg, po measured upto 24 hrs by LC-MS/MS analysis; assay type: ADME, organism-based; settings: in vivo

Row | SMILES | half-life at 0.1 µM [1] | half-life at 0.1 µM [2] | half-life at 0.1 µM [3] | also measured
1 | O=C(Cc1ccc(O)c(C(F)(F)F)c1)N1CC(CNc2ccc(F)cc2)C2(C1)CN(c1cc(F)cc(F)c1)C2 (racemic) | 15 min | 16 min | 24 min | 
2 | C[C@@H](C(=O)N1CC(CNc2ccc(F)cc2)C2(C1)CN(c1cc(F)cc(F)c1)C2)c1ccc(O)cc1 (mixture of isomers) | 6 min | 6 min | 7 min | 
3 | NC(=O)c1cc(CC(=O)N2CC(CNc3ccc(F)cc3)C3(C2)CN(c2cc(F)cc(F)c2)C3)ccc1O (racemic) | 11 min | 8 min | 21 min | 
4 | O=C(Cc1cc(F)c(O)c(F)c1)N1CC(CNc2ccc(F)cc2)C2(C1)CN(c1ccc(F)cc1)C2 (racemic) | 46 min | 40 min | 42 min | 
5 | O=C(Cc1ccc(O)cn1)N1CC(CNc2ccc(F)cc2)C2(C1)CN(c1cc(F)cc(F)c1)C2 (racemic) | 12 min | 12 min | 11 min | 
6 | O=C(Cc1ccc(C(F)F)cc1)N1CC(CNc2ccc(F)cc2)C2(C1)CN(c1ccc(F)cc1)C2 (racemic) | 7.6 min | 7.6 min | 6.6 min | 
7 | O=C(Cc1ccc(O)cc1)N1CC(CNc2ccccc2)C2(C1)CN(c1ccc(F)cc1)C2 (stereo not drawn) |  |  |  | half-life [4]: 240 min; clearance [5]: 63 mL/min/kg; Vd [6]: 22 L/kg; AUC(0-inf) [7]: 1.82 µM·h; bioavailability [8]: 10%; CL [9]: 5042 mL/min/kg; fAUC [10]: 3 µmol·min/L; f(Cave) [11]: 2 nM
8 | C[C@H](C(=O)N1CC(CNc2ccc(F)cc2)C2(C1)CN(c1cc(F)cc(F)c1)C2)c1ccc(O)cc1 (mixture of isomers) | 6 min | 4 min | 10 min | 
9 | O=C(Cc1ccnc(O)c1)N1CC(CNc2ccc(F)cc2)C2(C1)CN(c1cc(F)cc(F)c1)C2 (racemic) | 12 min | 20 min | 17 min | 
10 | CS(=O)(=O)c1ccc(-c2cnc(N)c(-c3ccc(C(F)(F)F)nc3)c2)cc1 [MMV-048] |  |  |  | clearance [5]: 3 mL/min/kg; bioavailability [8]: > 100%; CL [9]: 19 mL/min/kg; fAUC [10]: 4452 µmol·min/L; f(Cave) [11]: 3092 nM
11 | N#Cc1cc(CC(=O)N2CC(CNc3ccc(F)cc3)C3(C2)CN(c2cc(F)cc(F)c2)C3)ccc1O (racemic) | 27 min | 31 min | 70 min | 
12 | CC1(C)c2nc(-c3ccc(F)cc3)c(Nc3ccc(F)cc3)n2CCN1C(=O)CN [GANAPLACIDE] |  |  |  | clearance [5]: 37.8 mL/min/kg; bioavailability [8]: 74%; CL [9]: 548 mL/min/kg; fAUC [10]: 65.4 µmol·min/L; f(Cave) [11]: 45 nM
13 | O=C(N1CC(CNc2ccc(F)cc2)C2(C1)CN(c1cc(F)cc(F)c1)C2)C(F)(F)c1ccc(O)cc1 (racemic) | 23 min | 11 min | 12 min | 
14 | O=C(CN1CCC(O)CC1)N1CC(CNc2ccc(F)cc2)C2(C1)CN(c1ccc(F)cc1)C2 (racemic) | 150 min | 150 min | 150 min | 
15 | O=C(Cc1ccc(O)c(F)c1)N1CC(CNc2ccc(F)cc2)C2(C1)CN(c1ccc(F)cc1)C2 (racemic) | 17 min | 14 min | 13 min | 
16 | O=C([C@@H](O)c1ccc(O)cc1)N1CC(CNc2ccc(F)cc2)C2(C1)CN(c1cc(F)cc(F)c1)C2 (mixture of isomers) | 9 min | 6.7 min | 11 min | 
17 | O=C(Cc1ccc(O)nc1)N1CC(CNc2ccc(F)cc2)C2(C1)CN(c1cc(F)cc(F)c1)C2 (racemic) | 21 min | 52 min | 17 min | 
18 | O=C(Cc1cc[n+]([O-])cc1)N1CC(CNc2ccc(F)cc2)C2(C1)CN(c1cc(F)cc(F)c1)C2 (racemic) | 150 min | 150 min | 150 min | 
19 | N[C@H](C(=O)N1CC(CNc2ccc(F)cc2)C2(C1)CN(c1cc(F)cc(F)c1)C2)c1ccc(O)cc1 (mixture of isomers; form 1) | 150 min | 150 min | 150 min | half-life [4]: 480 min; clearance [5]: 33.7 mL/min/kg; Vd [6]: 23.5 L/kg; AUC(0-inf) [7]: 3 µM·h; bioavailability [8]: < 1%; CL [9]: 2155 mL/min/kg; fAUC [10]: 3 µmol·min/L; f(Cave) [11]: 2 nM
20 | O=C(Cc1ccc(O)c(Cl)c1)N1CC(CNc2ccc(F)cc2)C2(C1)CN(c1ccc(F)cc1)C2 (racemic) | 22 min | 25 min | 16 min | 

Second part, led by results:

Row | half-life at 0.1 µM [1] | half-life at 0.1 µM [2] | half-life at 0.1 µM [3] | SMILES | also measured
21 | 150 min | 150 min | 150 min | Nc1ccc(C[C@@H](N)C(=O)N2CC(CNc3ccc(F)cc3)C3(C2)CN(c2cc(F)cc(F)c2)C3)cc1 (mixture of isomers) | half-life [4]: 342 min; clearance [5]: 40.6 mL/min/kg; Vd [6]: 20.7 L/kg; AUC(0-inf) [7]: 2.48 µM·h; bioavailability [8]: 8%; CL [9]: 2959 mL/min/kg; fAUC [10]: 2 µmol·min/L; Cave [11]: 1 nM
22 | 64 min | 68 min | 67 min | O=C(Cc1ncc(O)cn1)N1CC(CNc2ccc(F)cc2)C2(C1)CN(c1cc(F)cc(F)c1)C2 (racemic) | 
23 | 6.8 min | 7.9 min | 4.4 min | O=C([C@H](O)c1ccc(O)cc1)N1CC(CNc2ccc(F)cc2)C2(C1)CN(c1cc(F)cc(F)c1)C2 (mixture of isomers) | 
24 | 34 min | 24 min | 20 min | N[C@H](Cc1ccc(O)cc1)C(=O)N1CC(CNc2ccc(F)cc2)C2(C1)CN(c1cc(F)cc(F)c1)C2 (mixture of isomers) | 
25 | 25 min | 44 min | 48 min | N[C@@H](C(=O)N1CC(CNc2ccc(F)cc2)C2(C1)CN(c1cc(F)cc(F)c1)C2)c1ccc(O)cc1 (mixture of isomers) | 
26 | 18 min | 7 min | 16 min | O=C(N1CC(CNc2ccc(F)cc2)C2(C1)CN(c1cc(F)cc(F)c1)C2)C(F)(F)c1ccc(O)c(C(F)(F)F)c1 (racemic) | 
